How the values were obtained:
[1] = target: T1, Recombinant IKKβ (Homo sapiens, UniProt O14920); assay: DELFIA IKKβ kinase assay (apparent Ki, Cheng-Prusoff); format: biochemical
T1 construct: purchased Millipore, Dundee, UK
T1 sequence (O14920 1-756): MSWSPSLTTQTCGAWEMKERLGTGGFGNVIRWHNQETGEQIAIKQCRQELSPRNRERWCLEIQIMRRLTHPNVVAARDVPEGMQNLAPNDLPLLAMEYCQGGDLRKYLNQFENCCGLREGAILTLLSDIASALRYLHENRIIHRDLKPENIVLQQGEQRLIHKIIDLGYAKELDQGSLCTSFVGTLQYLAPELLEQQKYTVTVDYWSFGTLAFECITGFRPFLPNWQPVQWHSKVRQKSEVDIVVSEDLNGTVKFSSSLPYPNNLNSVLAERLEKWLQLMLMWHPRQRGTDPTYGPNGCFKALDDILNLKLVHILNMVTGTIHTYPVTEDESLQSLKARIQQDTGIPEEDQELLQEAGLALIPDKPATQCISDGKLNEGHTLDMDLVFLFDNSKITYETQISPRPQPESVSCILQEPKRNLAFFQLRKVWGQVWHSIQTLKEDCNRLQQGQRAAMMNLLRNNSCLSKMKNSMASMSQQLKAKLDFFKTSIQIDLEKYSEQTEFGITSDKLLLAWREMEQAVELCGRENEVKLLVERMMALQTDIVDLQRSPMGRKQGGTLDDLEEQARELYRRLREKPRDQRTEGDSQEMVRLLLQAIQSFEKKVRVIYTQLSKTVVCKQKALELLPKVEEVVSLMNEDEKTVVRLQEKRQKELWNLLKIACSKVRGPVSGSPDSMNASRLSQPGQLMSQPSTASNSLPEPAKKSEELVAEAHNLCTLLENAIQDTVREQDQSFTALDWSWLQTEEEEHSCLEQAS
Summary of the method: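 DELFIA time-resolved fluorescence (ex 340/em 615 nm) quantified phosphorylation of a biotinylated IκB-α Ser32 peptide (0.375 μM) by 37 nM recombinant IKKα or IKKβ. Reactions used 40 μM ATP, Tris pH 7.5 buffer with MgCl2, DTT and BSA, 60 min at 30° C. Cheng-Prusoff equation gave apparent Ki.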

[2] = tested on: PANC1 cells; assay: Cell viability, alamarBlue assay, PANC1 cells; format: cell-based; conditions: treatment for 48 hours
Experimental: (§1) PC3, PC3M, LNCaP Al, cells were grown in RPMI 1640 media and PANC1 and MiaPac-2 cells were grown in Dulbecco's Modified Eagle's Media (DMEM) which was supplemented with 10% (v/v) Foetal Calf Serum (FCS) (Charcoal-stripped for LNCaP Als), L-glutamine ([…]) and penicillin/streptomycin (250 units/ml; 100 μg/ml). All cells were incubated in a humidified atmosphere at 37° C. and 5% (v/v) CO2. Cells were cultured as a monolayer in 10 ml media in […] vented flasks and grown until subculture was required.
(§2) Cell viability determination: Cells (1000 cells/100 μl) were plated into 96 well plates and incubated for 24 hours at 37° C. and 5% (v/v) CO2 before being treated with SU1433. After incubation with SU1433 for 48 h, cell viability was measured using the alamarBlue® Assay (Thermofisher, UK). The media was removed and replaced with a 1:10 media to alamar blue solution. After a 1 h incubation at 37° C. and 5% CO2, the fluorescence was measured at 530-560 nm excitation wavelength and 590 nm emission wavelength in a fluorescence plate reader. All treatment were measured in duplicate wells and repeated at least 3 times. The results represent the fractional survival of untreated controls±SD.

[3] = tested on: LNCaP cells; assay: Cell viability, alamarBlue assay, LNCaP cells; format: cell-based; conditions: treatment for 48 hours
Experimental: as §1, §2

[4] = tested on: MiaPaca-2 cells; assay: Cell viability, alamarBlue assay, MiaPaca-2 cells; format: cell-based; conditions: treatment for 48 hours
Experimental: as §1, §2

[5] = DELFIA assay (first line of an example)

Row | Structure (SMILES) | Ki [1, 5] | further results
1 | CC(C)(C)C#Cc1cc(-c2ccnc(N)c2)cc2c(N)n[nH]c12 [Example 137, 5-(2-Aminopyridin-4-yl)-7-(3,3-dimethylbut-1-yn-1-yl)-1H-indazol-3-amine] |  | Ki ([1]; non-italicised figure: DELFIA assay): 1.47 µM; viability of PANC1 cells [2]: reduced the viability; viability of LNCaP cells [3]: reduced the viability; viability of MiaPaca-2 cells [4]: reduced the viability
2 | CN1CCN(C(=O)c2cc3c(-c4ccc5[nH]nc(N)c5c4)ccnc3[nH]2)CC1 [Example 243, (4-(3-Amino-1H-indazol-5-yl)-1H-pyrrolo[2,3-b]pyridin-2-yl)(4-methylpiperazin-1-yl)methanone] | 1.03 µM | 
3 | CC(C)(C)NCc1cc2c(-c3ccc4[nH]nc(N)c4c3)ccnc2[nH]1 [Example 248, 5-(2-((tert-Butylamino)methyl)-1H-pyrrolo[2,3-b]pyridine-4-yl)-1H-indazol-3-amine] | 4.02 µM | 
4 | Nc1n[nH]c2ccc(-c3ccnc4[nH]c(C5CCCCN5)cc34)cc12 (stereo not drawn) [Example 250, 5-(2-(Piperidin-2-yl)-1H-pyrrolo[2,3-b]pyridine-4-yl)-1H-indazol-3-amine] | > 10 µM | 
5 | Nc1n[nH]c2ccc(-c3ccnc4[nH]c(CNC5CCCCC5)cc34)cc12 [Example 251, 5-(2-((cyclohexylamino)methyl)-1H-pyrrolo[2,3-b]339yridine-4-yl)-1H-indazol-3-amine] | 1.3 µM | 
6 | CN(C)CCCNCc1cc2c(-c3ccc4[nH]nc(N)c4c3)ccnc2[nH]1 [Example 258, N^1-((4-(3-amino-1H-indazol-5-yl)-1H-pyrrolo[2,3-b]pyridin-2-yl)methyl)-N^3,N^3-dimethylpropane-1,3-diamine] | 1.13 µM | 
7 | CC(C)N(C)Cc1cc2c(-c3ccc4[nH]nc(N)c4c3)ccnc2[nH]1 [Example 259, 5-(2-((Isopropyl(methyl)amino)methyl)-1H-pyrrolo[2,3-b]pyridine-4-yl)-1H-indazol-3-amine] | 2.14 µM | 
8 | Nc1n[nH]c2ccc(-c3ccnc4[nH]c(CN5CCCCC5)cc34)cc12 [Example 260, 5-(2-(Piperidin-1-ylmethyl)-1H-pyrrolo[2,3-b]pyridine-4-yl)-1H-indazol-3-amine] | 1.72 µM | 
9 | Nc1n[nH]c2ccc(-c3ccnc4[nH]c(CN5CCC(F)(F)CC5)cc34)cc12 [Example 261, 5-(2-((4,4-Difluoropiperidin-1-yl)methyl)-1H-pyrrolo[2,3-b]pyridine-4-yl)-1H-indazol-3-amine] | 2.39 µM | 
10 | Nc1n[nH]c2ccc(-c3ccnc4[nH]c(CN5CCOCC5)cc34)cc12 [Example 262, 5-(2-(Morpholinomethyl)-1H-pyrrolo[2,3-b]pyridine-4-yl)-1H-indazol-3-amine] | 0.277 µM | 
11 | CN1CCN(Cc2cc3c(-c4ccc5[nH]nc(N)c5c4)ccnc3[nH]2)CC1 [Example 263, 5-(2-((4-Methylpiperazin-1-yl)methyl)-1H-pyrrolo[2,3-b]pyridine-4-yl)-1H-indazol-3-amine] | 2.43 µM | 
12 | Nc1n[nH]c2ccc(-c3ccnc4[nH]c(CN5CCCCCC5)cc34)cc12 [Example 265, 5-(2-(Azepan-1-ylmethyl)-1H-pyrrolo[2,3-b]pyridine-4-yl)-1H-indazol-3-amine] | 2.51 µM | 
13 | CN1CCCN(Cc2cc3c(-c4ccc5[nH]nc(N)c5c4)ccnc3[nH]2)CC1 [Example 266, 5-(2-((4-Methyl-1,4-diazepan-1-yl)methyl)-1H-pyrrolo[2,3-b]pyridin-4-yl)-1H-indazol-3-amine] | 1.8 µM | 
14 | Nc1n[nH]c2ccc(-c3ccnc4[nH]c(CCN5CCCCC5)cc34)cc12 [Example 267, 5-(2-(2-(Piperidin-1-yl)ethyl)-1H-pyrrolo[2,3-b]pyridine-4-yl)-1H-indazol-3-amine] | 1.38 µM | 
15 | Nc1n[nH]c2ccc(-c3ccnc4[nH]c(CCN5CCOCC5)cc34)cc12 [Example 268, 5-(2-(2-Morpholinoethyl)-1H-pyrrolo[2,3-b]pyridin-4-yl)-1H-indazol-3-amine] | 0.251 µM | 
16 | Nc1n[nH]c2ccc(-c3ccnc4[nH]c(CCCN5CCCCC5)cc34)cc12 [Example 269, 5-(2-(3-(Piperidin-1-yl)propyl)-1H-pyrrolo[2,3-b]pyridin-4-yl)-1H-indazol-3-amine] | 0.507 µM | 
17 | Nc1n[nH]c2ccc(-c3ccnc4[nH]c(CCCN5CCOCC5)cc34)cc12 [Example 271, 5-(2-(3-Morpholinopropyl)-1H-pyrrolo[2,3-b]pyridin-4-yl)-1H-indazlo-3-amine] | 0.126 µM | 
18 | Nc1n[nH]c2ccc(-c3ccnc4[nH]c(CC5CCNCC5)cc34)cc12 [Example 272, 5-(2-(Piperidin-4-ylmethyl)-1H-pyrrolo[2,3-b]pyridin-4-yl)-1H-indazol-3-amine] | 0.05 µM | 
